One may read the GI50 as the concentration at which growth is held to half of that of the control.

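Five concentrations, 48 hours, 96-well plates. Abbreviation: GI50, concentration required for 50% inhibition of growth.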 Calls of active or inactive are those of the source. Rule as the data show it: active = GI50 up to about 1.1 µM and inactive = higher. A value given as a limit tells only on which side of the number the result lay.

Test systems include KM12; K562; SF-268; A549; SK-OV-3; OVCAR-4; EKVX; NCI-H460; SK-MEL-28; LOX IMVI; COLO 205; HCC 2998; NCI-H226; IGROV-1; SN12C; MDA-MB-435; HCT-15; MDA-MB-231; OVCAR-5; SF-295.
What all share (test): DTP human tumour cell line panel, 48 h

In the case of `CCOC(=O)NNC(=O)NCc1ccccc1CNC(=O)NNC(=O)OCC`, the GI50 in the experiment on KM12, in the experiment on K562, in the experiment on SF-268, in the experiment on A549, in the experiment on SK-OV-3 and with OVCAR-4 was > 100 µM (inactive) each time. In addition, the GI50 in the experiment with EKVX, in the experiment on NCI-H460, in the experiment with SK-MEL-28, with LOX IMVI, in the experiment with COLO 205 and in the experiment on HCC 2998 was > 100 µM (inactive) throughout. Also, the GI50 in the experiment on NCI-H226 is > 100 µM (inactive); with IGROV-1, > 100 µM (inactive); with SN12C it was > 100 µM (inactive); in the experiment on MDA-MB-435 it was > 100 µM (inactive); in the experiment on HCT-15, over 100 µM; in the experiment with MDA-MB-231, > 100 µM (inactive). In the experiment with OVCAR-5, the GI50 is > 100 µM (inactive).
Take `CN(C)C(=O)OC(Cn1cncn1)(Cn1cncn1)c1ccc(Cl)cc1Cl`: the GI50 with KM12, in the experiment with K562, in the experiment with SF-268, with A549, in the experiment with SK-OV-3 and in the experiment with OVCAR-4 was > 100 µM (inactive) throughout. The GI50 with EKVX, in the experiment on NCI-H460, in the experiment with SK-MEL-28, in the experiment on LOX IMVI, with COLO 205 and with HCC 2998 was > 100 µM (inactive) in each case. Besides, the GI50 in the experiment on NCI-H226 is > 100 µM (inactive); in the experiment with SF-295, > 100 µM (inactive); in the experiment with IGROV-1, > 100 µM (inactive); with MDA-MB-435 it was > 100 µM (inactive); with HCT-15, over 100 µM; in the experiment with MDA-MB-231, > 100 µM (inactive). For the same molecule, in the experiment with OVCAR-5, the GI50 was > 100 µM (inactive).
Regarding `COC(CN(C(=O)c1ccccc1)C1CCC2(SCCS2)c2[nH]c3ccccc3c21)OC` (stereo not drawn), the GI50 in the experiment with KM12 was 27.5 µM (inactive); in the experiment with K562, 14.9 µM (inactive); with SF-268, > 100 µM (inactive); in the experiment with A549 it was 30.7 µM (inactive); in the experiment with OVCAR-4 it was 28.2 µM (inactive); in the experiment with EKVX it was 19.6 µM (inactive). For the same molecule, the GI50 in the experiment with NCI-H460 was 33.8 µM (inactive); in the experiment with SK-MEL-28, 61.2 µM (inactive); in the experiment with LOX IMVI, 2.18 µM (inactive); with COLO 205 it was 21.9 µM (inactive); with HCC 2998, 30.5 µM (inactive); in the experiment on NCI-H226 it was 83.8 µM (inactive). Also, the GI50 with SF-295 was 3.01 µM (inactive); in the experiment with IGROV-1, 40.6 µM (inactive); in the experiment with SN12C, 24.2 µM (inactive); in the experiment on MDA-MB-435, 15.6 µM (inactive); in the experiment with HCT-15, 30.6 µM; in the experiment on MDA-MB-231, 28.9 µM (inactive). In addition, in the experiment on OVCAR-5, the GI50 is 33.7 µM (inactive).
With `CC(C)(C)COC1C2(OCCO2)C2CCC1(C)C2(C)C` (stereo not drawn), the GI50 in the experiment on KM12 is 20 µM (inactive); in the experiment with K562, 18.5 µM (inactive); in the experiment with SF-268, 50.2 µM (inactive); in the experiment on A549 it was 23.6 µM (inactive); in the experiment with SK-OV-3, 66.2 µM (inactive); in the experiment on OVCAR-4, 45 µM (inactive). Further, the GI50 was 33.7 µM (inactive) in the experiment with EKVX; 33.7 µM (inactive) in the experiment with NCI-H460; 87.1 µM (inactive) in the experiment on SK-MEL-28; 19.2 µM (inactive) in the experiment with LOX IMVI; 28.6 µM (inactive) in the experiment on COLO 205; 37.5 µM (inactive) in the experiment on HCC 2998. Besides, the GI50 was 27.4 µM (inactive) with NCI-H226; 18.7 µM (inactive) in the experiment on SF-295; 82.8 µM (inactive) in the experiment on IGROV-1; 36 µM (inactive) in the experiment on MDA-MB-435; 22.4 µM with HCT-15; 31.8 µM (inactive) with MDA-MB-231. Besides, the GI50 in the experiment on OVCAR-5 is 28.9 µM (inactive).
Consider `O=C(Cn1c(=O)oc2ccc(C(=O)c3ccc(F)cc3)cc21)c1ccc([N+](=O)[O-])cc1`, for which the GI50 in the experiment on KM12 was 22.8 µM (inactive); in the experiment on K562 it was 28.3 µM (inactive); in the experiment with SF-268 it was 45 µM (inactive); in the experiment on A549 it was 37.1 µM (inactive); in the experiment on SK-OV-3, 69.8 µM (inactive); in the experiment with OVCAR-4 it was 25.5 µM (inactive). The GI50 in the experiment with NCI-H460 was 32.8 µM (inactive); in the experiment on SK-MEL-28 it was 45.3 µM (inactive); in the experiment with LOX IMVI it was 34.8 µM (inactive); with COLO 205, 26.9 µM (inactive); with HCC 2998, 15.9 µM (inactive); in the experiment on NCI-H226, 27.3 µM (inactive). Besides, the GI50 in the experiment with IGROV-1 is 24.3 µM (inactive); in the experiment on SN12C, 60.3 µM (inactive); with MDA-MB-435, 19.3 µM (inactive); with HCT-15, 20.9 µM; with MDA-MB-231 it was 28.9 µM (inactive); in the experiment with OVCAR-5, > 100 µM (inactive).
In the case of `COc1ccc(C23OCC(Cc4cc(OC)c(OC)cc42)C3CO)cc1OC` (stereo not drawn), the GI50 with KM12, with K562, in the experiment with A549, in the experiment with SK-OV-3, in the experiment with OVCAR-4 and in the experiment on EKVX was > 100 µM (inactive) each time. In addition, the GI50 in the experiment on NCI-H460, with SK-MEL-28, in the experiment with LOX IMVI, with COLO 205, in the experiment with HCC 2998 and in the experiment on NCI-H226 was > 100 µM (inactive) in each case. Besides, the GI50 with SF-295 was > 100 µM (inactive); in the experiment on MDA-MB-435 it was > 100 µM (inactive); in the experiment with HCT-15, over 100 µM; in the experiment with MDA-MB-231, > 100 µM (inactive); in the experiment on OVCAR-5, > 100 µM (inactive).
For `COc1cc2c(c(OC)c1)/C(=C/Sc1ccccc1)C(=O)N(C(C)(C)C)C2`, the GI50 with KM12 is 24.3 µM (inactive); with K562 it was 37.8 µM (inactive); in the experiment with SF-268, 14.1 µM (inactive); in the experiment with SK-OV-3 it was 14.2 µM (inactive); in the experiment with OVCAR-4, 33.1 µM (inactive); in the experiment with EKVX it was 29.6 µM (inactive). The GI50 with SK-MEL-28 is 38.9 µM (inactive); with LOX IMVI it was 18.8 µM (inactive); with COLO 205, 26.2 µM (inactive); in the experiment on HCC 2998, 37.8 µM (inactive); in the experiment on NCI-H226, 51.6 µM (inactive); in the experiment on SF-295 it was 27.2 µM (inactive). Further, the GI50 was 22.3 µM (inactive) with IGROV-1; 24 µM (inactive) in the experiment with SN12C; 22.2 µM (inactive) with MDA-MB-435; 30.3 µM in the experiment on HCT-15; 23.4 µM (inactive) with MDA-MB-231; 52.6 µM (inactive) in the experiment with OVCAR-5.
Take `N/C(=N/O)c1cn(C2OC(CO)C(O)C2O)c2ncnc(NO)c12` (stereo not drawn): the GI50 was 0.184 µM (active) in the experiment on K562; 0.164 µM (active) in the experiment with SF-268; 0.126 µM (active) in the experiment on A549; < 0.02 µM (active) in the experiment with SK-OV-3; 0.265 µM (active) with OVCAR-4; 0.422 µM (active) with EKVX. In addition, the GI50 in the experiment with NCI-H460 is 0.112 µM (active); in the experiment with SK-MEL-28, 0.476 µM (active); in the experiment on LOX IMVI it was 0.123 µM (active); in the experiment on COLO 205 it was 0.0771 µM (active); in the experiment on HCC 2998 it was 0.147 µM (active); in the experiment on NCI-H226, 0.34 µM (active). For the same molecule, the 50% growth inhibitory concentration (GI50) in the experiment with SF-295 was 0.773 µM (active); in the experiment with IGROV-1, 0.451 µM (active); with SN12C, 0.0593 µM (active); in the experiment with MDA-MB-435 it was 0.0962 µM (active); in the experiment on HCT-15, 0.184 µM; in the experiment with MDA-MB-231 it was 0.0344 µM (active). Also, in the experiment with OVCAR-5, the GI50 was 0.656 µM (active).
